This data set is described as follows: Human HepG2 cell viability assay in 384 well format. It counts as toxicity, cell-based. More on the design: dose 125 nL, time 70.5 hour; cytotoxicity at 70.5 h: concentration not given beside the values. As to conditions: HepG2 cells, read-out: Inhibition.
As for `N#Cc1cc(C#N)c(SCC(=O)NCc2ccc(F)cc2)nc1N`, the cytotoxicity at 70.5 h stood at 27.8%.
The same measure for `CCS(=O)(=O)N1CCc2ccc(NC(=O)Nc3ccccc3C)cc21`: -11%; for `COc1ccc(OC)c(CNCc2ccnc(N3CCOCC3)c2)c1`: -4.43%; for `COCCn1ccnc1C1CCCN(C(=O)c2cccnc2SC)C1` (stereo not given): 13%.
For `Cc1cc(C)n(C(=O)Cn2nc(C)c(I)c2C)n1`, the cytotoxicity at 70.5 h is -7.22%.
The result for `CC(=O)Nc1nc(COc2nc(C)no2)cs1` reads 24.6%; that for `CC(=O)NCCCSC1CCCN(c2ccccc2Cl)C1=O` (stereo not given), -15.3%; that for `CCCC(=O)N1CCc2nc3cc(OC)c(OC)cc3c(=O)n2CC1`, -5.67%.
As for `CN(C)C(=O)[C@]12CCCN(CC3CC3)C[C@H]1CN(c1ccccn1)C2`, the cytotoxicity at 70.5 h was -8.29%.
Consider `CCC(CO)NCc1ccc(-c2ccccc2)o1` (stereo not given), for which the cytotoxicity at 70.5 h was found to be 29.3%.
As to `CCC(=O)Nc1cccc(OCC(=O)N(C)Cc2cc(COC)[nH]n2)c1`, the cytotoxicity at 70.5 h is -4.96%.
As to `Cc1ccc(C(=O)N2CCc3ncnc(-c4cnn(C)c4)c3CC2)cn1`, the cytotoxicity at 70.5 h was -2.36%.
On to `Cn1cc(C(=O)N2CCN(c3ccc(F)cc3)CC2)ccc1=O`, for which the cytotoxicity at 70.5 h was 2.77%.
As for `CC(C(=O)Nc1nccs1)N(C)Cc1cccc(C#N)c1` (stereo not given), the cytotoxicity at 70.5 h is -11.6%.
The result for `Cc1noc(C)c1CN1CCOC2(CCCN(c3ncccn3)C2)C1` (stereo not given) reads -5.7%; that for `O=c1nc(SCc2cccnc2)c2c(n1CCO)CCCC2`, -11%; that for `CN(CC(=O)NCc1cccnc1N1CCCCC1)C(=O)c1cccs1`, 0.0514%.
Turning to `O=C(O)Cc1cccc(-n2ccnc2-c2ccc(Cl)s2)c1`, the cytotoxicity at 70.5 h was -4.96%.
The same measure for `c1ccc(CCN2CCN(c3ccc4nncn4n3)CC2)nc1`: -6.96%; for `CC(C)c1nnc(N2C[C@@H]3CC[C@H](C2)N(CC2CCC2)C3)s1`: -2.56%; for `CCn1ccnc1CN1CCC(Oc2cccc(F)c2)(C(=O)O)CC1`: -4.69%.
Turning to `CC(C)c1nc(CN(C)C(=O)CCc2ccc3c(c2)OCO3)cs1`, the cytotoxicity at 70.5 h is -9.76%.
Take `N#Cc1cccc(CNc2cc(CO)ccc2Cl)c1`: the cytotoxicity at 70.5 h was -15.1%.
Take `COCCN(Cc1ccco1)Cc1nc(-c2ccccc2)no1`: the cytotoxicity at 70.5 h was 19.2%.
Regarding `Cc1cc(C)n(CC2CCCN2C(=O)Cc2c(C)noc2C)n1` (stereo not given), the cytotoxicity at 70.5 h turned out to be 7.13%.
`CCCNC(=O)NCc1ccccc1NS(=O)(=O)c1ccccc1`: the cytotoxicity at 70.5 h was -0.797%.
Consider `Cc1cc(C)n(CC(=O)NC2CCCCNC2=O)n1` (stereo not given), for which the cytotoxicity at 70.5 h is -6.78%.
With `Cc1ccc(O)c(CNc2cccc(CN3CCN(C)CC3)c2)n1`, the cytotoxicity at 70.5 h was -0.441%.
With `O=S(=O)(NCc1ccnc(-n2ccnc2)c1)c1cncc(F)c1`, the cytotoxicity at 70.5 h is -1.94%.
For `CN(C)C[C@@H]1CN(C2CCN(c3ccc(Cl)cc3)CC2)C[C@@H]1CO`, the cytotoxicity at 70.5 h was -10.6%.
For `CN(C)C(=O)c1nc(CN2C(=O)OC[C@@H]2c2ccccc2)no1`, the cytotoxicity at 70.5 h was 15.9%.
In the case of `CCC(CO)N(Cc1ccc(F)cc1)Cc1c(C)nn(C)c1Cl` (stereo not given), the cytotoxicity at 70.5 h is -3.37%.
For `Cc1cnc(N2CC3(CCN(S(=O)(=O)C4CC4)C3)C2)nc1`, the cytotoxicity at 70.5 h was -11.5%.
Turning to `Cc1ccc2[nH]c(=O)c(CN(C)Cc3cc(C4CC4)[nH]n3)cc2c1`, the cytotoxicity at 70.5 h is 11.1%.
The result for `O=C(c1cccn1Cc1cccs1)N1CCC(C(=O)N2CCCC2)CC1` reads -5.45%.
With `CCS(=O)(=O)N1CCC[C@]2(C(=O)N(C)C)CN(c3ccccn3)C[C@@H]2C1`, the cytotoxicity at 70.5 h is -0.152%.
Consider `CCn1c(N)nc2cc(C(=O)NCCNc3ncccc3C)cnc21`, for which the cytotoxicity at 70.5 h is -3.99%.
As for `CNC(=O)CN1CCOCC2(CCCN(Cc3cccnc3)C2)C1` (stereo not given), the cytotoxicity at 70.5 h turned out to be 4.24%.
For the compound `c1ccc(CNC2CCc3ncnn3C2)nc1` (stereo not given), the cytotoxicity at 70.5 h was 6.6%.
With `COc1c(C(=O)N2CCC(CSc3ccccc3)C2)c(C)nn1C` (stereo not given), the cytotoxicity at 70.5 h came out at 1.84%.
Turning to `CC(C)Cn1cncc1-c1nc2c([nH]1)CCCNC2=O`, the cytotoxicity at 70.5 h is -6.28%.
The result for `CCN(C(=O)Nc1nncs1)C(C)c1cccc(OC)c1` (stereo not given) reads -9.86%.
The result for `O=C(c1nnn(-c2ccccc2)n1)N(CCO)CCO` reads -5.32%; that for `COCCCN1CC2(CCCN(c3ncc(Cl)cc3F)C2)CCC1=O` (stereo not given), 3.03%; that for `CCc1cnc(CN2CCC(O)(c3cc(OC)cc(OC)c3)CC2)o1`, -12.2%.
As for `COc1cccc(-c2nc(C)c(C(=O)N[C@@H](C)C(=O)O)s2)c1`, the cytotoxicity at 70.5 h is 4.53%.
For `NC(=O)Nc1cc(F)ccc1SCC(F)F`, the cytotoxicity at 70.5 h is -8.84%.
Take `O=C(c1ccc2c(c1)COC2)N1CCC(Nc2ccccc2)CC1`: the cytotoxicity at 70.5 h was determined as 1.02%.
Turning to `CNc1cc(C2CN(C(=O)c3ccccc3)CCO2)nc(C)n1` (stereo not given), the cytotoxicity at 70.5 h is -5.28%.
Consider `Cc1nn(C)c(N2CCOCC2)c1CNCc1ccc(N(C)C)nc1`, for which the cytotoxicity at 70.5 h is 15.7%.
On to `CC(=O)N(Cc1ncc(C)o1)C1CCN(CCNC2CCCCC2)C1` (stereo not given), for which the cytotoxicity at 70.5 h stood at 9.67%.
As for `CCN(CC)C(=O)c1c(Br)cnn1CC`, the cytotoxicity at 70.5 h was -2.09%.
In the case of `Cc1nc(N2CCOCC2)nc2c1CN(C(=O)C(C)C)CC2`, the cytotoxicity at 70.5 h was 4.55%.
For `c1ccc2sc(N3CCC4(CCCN4Cc4ncc[nH]4)CC3)nc2c1`, the cytotoxicity at 70.5 h was -7.49%.
For the compound `CC(C)C(C)(C#N)NC(=O)Cn1cc(C(N)=O)c(-c2ccccc2)n1` (stereo not given), the cytotoxicity at 70.5 h is -6.34%.
Turning to `Cn1ccnc1CN1CCN(c2ccc(C#N)cn2)CC1`, the cytotoxicity at 70.5 h is -13.3%.
In the case of `O=C1CC(c2ncc(-c3ccc4c(c3)OCCO4)[nH]2)CN1C1CC1` (stereo not given), the cytotoxicity at 70.5 h was -7.8%.
On to `Cn1cc(CNC(=O)C2COCC(=O)N2Cc2ccccc2)cn1` (stereo not given), for which the cytotoxicity at 70.5 h was determined as 2.62%.
For `COc1ccc(OC)c(C(=O)N2CCCCC2Cn2cccn2)c1` (stereo not given), the cytotoxicity at 70.5 h is -0.39%.
With `O=C(CC1OCCc2ccccc21)NCCn1cccc1` (stereo not given), the cytotoxicity at 70.5 h was -4.75%.
The same measure for `CNC(=O)CN(C(=O)c1ccccc1)[C@H]1C[C@H]2CCOC[C@H]2C1`: -1.15%; for `CC(c1ccc2c(c1)OCO2)N1Cc2nc(N(C)C)ncc2C1=O` (stereo not given): -0.989%.
For the compound `CC(=O)NC1CCN(c2nc(C)nc3c2c(C)nn3C)C1` (stereo not given), the cytotoxicity at 70.5 h amounted to 20.8%.
On to `CCC(C)CNCC1(S(C)(=O)=O)CCOCC1` (stereo not given), for which the cytotoxicity at 70.5 h was -1.98%.
In the case of `N#Cc1ccc(CNC2CCN(CCc3ccncc3)CC2)cc1`, the cytotoxicity at 70.5 h is -1.86%.
On to `CCNC(=O)C1(Cc2cc(-c3ccccc3)no2)CCCN(C(C)=O)C1` (stereo not given), for which the cytotoxicity at 70.5 h was 10.5%.
The result for `Cc1cc(C)n(CC2CCCN2C(=O)c2c(C)noc2C)n1` (stereo not given) reads 18.5%; that for `CN(c1ccc2ccccc2c1)S(=O)(=O)c1cc(C(=O)O)cs1`, -8.18%.
Consider `OCCN1CCOC2(CCCN(c3ncccn3)C2)C1` (stereo not given), for which the cytotoxicity at 70.5 h is -2.47%.
On to `COc1ccc(-c2noc([C@@H]3C[C@@H](O)CN3C3CCN(C)CC3)n2)cc1`, for which the cytotoxicity at 70.5 h is -2.03%.
Consider `COCCNC(=O)c1ccnn1-c1ccc2ccccn12`, for which the cytotoxicity at 70.5 h is -4.72%.
Regarding `CC(C)CCC(=O)N(C)CC(=O)Nc1ccc(Br)cn1`, the cytotoxicity at 70.5 h turned out to be 43.7%.
On to `N#Cc1nccnc1NC1CCN(c2ccccc2Br)C1` (stereo not given), for which the cytotoxicity at 70.5 h turned out to be 11.1%.
Regarding `CCn1ncc(CN2CCc3c(nc(-c4cccnc4)[nH]c3=O)C2)c1C`, the cytotoxicity at 70.5 h was -18.3%.
The same measure for `CCOCC1CN(CC2CC2)Cc2cnn(C)c21` (stereo not given): -8.87%.
Regarding `Cc1ccc(CNC(=O)Nc2nnc(C)s2)cn1`, the cytotoxicity at 70.5 h is -5.53%.
In the case of `O=C([C@H]1C[C@H]2OCC[C@H]2N(CC2CCOCC2)C1)N1CCCC1`, the cytotoxicity at 70.5 h is -2.01%.
Take `COCCN(Cc1nc2c(cnn2C)c(=O)[nH]1)Cc1ccco1`: the cytotoxicity at 70.5 h was -7.8%.
On to `CCc1cnc(C)nc1NCc1cnc2c(c1)CCC2`, for which the cytotoxicity at 70.5 h was -9.06%.
Turning to `Cc1cccc(N2CCN(C(=O)C3CC4(CCNCC4)CN3)CC2)n1` (stereo not given), the cytotoxicity at 70.5 h is 5.27%.
Turning to `CSc1ccc(C(=O)N2CC(=O)N(Cc3ccccc3)CC(O)C2)cc1` (stereo not given), the cytotoxicity at 70.5 h came to 0.216%.
Turning to `c1ccc(Cn2ccnc2CN2CCCC2c2noc(C3CC3)n2)cc1` (stereo not given), the cytotoxicity at 70.5 h is 8.17%.
`Cc1cc(C)cc(OCCCn2nc3ccccn3c2=O)c1`: the cytotoxicity at 70.5 h was -13.4%.
Regarding `Cc1nc(N2CCOCC2)nc2c1CCN(C(=O)C1CC1)CC2`, the cytotoxicity at 70.5 h was -13.2%.
With `O=c1c2cccnc2ccn1Cc1nccn1C1CC1`, the cytotoxicity at 70.5 h is -10.2%.
Consider `COCCn1ccc2c(C(=O)NC(C)C)cccc21`, for which the cytotoxicity at 70.5 h is -12.3%.
For `O=C1COc2ccccc2N1CCCn1cnnn1`, the cytotoxicity at 70.5 h is -9.54%.
Regarding `COCc1cncc2c1CCN(C(=O)c1ccc(C#N)cc1)C2`, the cytotoxicity at 70.5 h was -10.3%.
On to `Cc1ccc(S(=O)(=O)N2CCc3nc(C4CCNCC4)ncc3C2)cc1`, for which the cytotoxicity at 70.5 h was -8.7%.
On to `CCOCC1CN(C(=O)c2ccoc2C)Cc2cnn(C)c21` (stereo not given), for which the cytotoxicity at 70.5 h came to 28.1%.
The result for `CCc1nc2c(N3CCC4(CC3)CC(=O)N(CC)C4)ncnc2o1` reads -1.14%; that for `CC(C)NC(=O)c1cccc(Oc2ccc3nncn3n2)c1`, 23.3%; that for `Cc1cccc(CN2C[C@@H]3CCCO[C@@H]3[C@H](Nc3ccccn3)C2)n1`, 1.63%.
Turning to `COc1ccc(CN2CC[C@H](c3nc4cccc(C(N)=O)c4[nH]3)C2)cc1`, the cytotoxicity at 70.5 h stood at 3.39%.
Take `Cc1noc(C)c1C(=O)NCc1ccc(N2CCOC(C)C2)nc1` (stereo not given): the cytotoxicity at 70.5 h turned out to be 4.56%.
The same measure for `CS(=O)(=O)N1CCN(C(=O)CCn2cccn2)CC1`: -6.72%.
Regarding `C[C@@H]1CN(C(=O)CCc2cnn(C)c2)C[C@@]1(O)C1CCC1`, the cytotoxicity at 70.5 h was -5.7%.
Turning to `CCOC(C)c1nc(CNc2cccc(Cl)c2OC)cs1` (stereo not given), the cytotoxicity at 70.5 h stood at 8.97%.
The result for `CS(=O)(=O)NCc1cn2c(n1)CN(C(=O)c1ccc[nH]1)CC2` reads -9.01%; that for `COc1cccc(/C=C/CCN2CCC(C(=O)N3CCCC3)CC2)c1`, 3.93%.

The values above are taken from ChEMBL document CHEMBL3507680, “University of Dundee, Gates Library screen for HepG2 cell viability”.
